Experiment [1] has as its target T1, Recombinant full-length HIV-1 Reverse Transcriptase (HIVrt) (Human immunodeficiency virus type 1 group M subtype B, UniProt P04585).
T1 construct: Recombinant full-length HIV-1 Reverse Transcriptase (HIVrt); purchased Abcam ab63979
The experiment is described as follows: Inhibition of HIV reverse transcriptase (RdDp assay). In kind it is biochemical. Particulars: 1 nM HIVrt, 30° C., 40 min, 3H-TTP incorporation; Table 3 triphosphates. How it is done: Recombinant full-length HIV-1 Reverse Transcriptase (HIVrt) was purchased from Abcam, catalog #ab63979. The last 385 nucleotide region of the HCV anti-genome complementary to the 5′ untranslated region (c5′UTR) was synthesized using T7 RNA polymerase Megascript kit from Ambion (Cat #AM1333). A DNA oligo served as an internal initiation primer and was purchased from IDT. Unless otherwise specified, reaction samples consisted of 20 nM c5′UTR RNA, 100 nM DNA primer, and 1 nM HIVrt, mixed together in a buffer containing 50 mM Tris pH 7.5, 100 mM KCl, 4 mM dithiothreitol (DTT), and 12.5 mM MgCl2. Reactions were initiated at 30° C. by adding 0.1 μM adenosine triphosphate (dATP), 0.1 μM cytosine triphosphate (dCTP), 1 μM guanosine triphosphate (dGTP), and 0.32 μM ^3H-thymidine triphosphate (^3H-TTP), in a final volume of 50 μL. After 40-mins incubation, the reaction was terminated by adding 60 μL of chilled 20% (w/v) trichloroacetic acid with 500 μM ATP to precipitate nucleic acids. After incubation at 4° C. for 1 h, the sample underwent filtration on a multiscreen BV […] 96-well plate (Millipore). 40 μL Microscint-20 (Perkin Elmer) was added to the well and the counts in the sample were determined by a Trilux Microbeta microplate scintillation reader (Wallac).
All data were analyzed with GraphPad Prism. The compound concentration at which the enzyme-catalyzed rate was reduced by 50% (IC50) was calculated by fitting the data to the equation Y=% Min+(% Max−% Min)/(1+X/IC50), where Y corresponds to the percent relative enzyme activity, % Min is the residual relative activity at saturating compound concentration, % Max is the relative maximum enzyme activity, and X corresponds to the compound concentration. The Ki was calculated using the Cheng-Prusoff equation assuming competitive inhibition relative to natural dNTP incorporation: K=IC50/(1+[dNTP]/Km), where [dNTP] is the concentration of natural dNTP and Km is the apparent Km for dNTP. The standard HIVrt RNA-dependent DNA polymerization (RdDp) assay was used to determine the IC50 values.

Experiment [2] deals with T2, Recombinant full-length HBV polymerase (HBVpol) (Hepatitis B virus genotype D subtype ayw, UniProt P03156).
T2 construct: Recombinant full-length HBV polymerase(HBVpol) was expressed in SF9 cells; made in house; host or cells: SF9 insect cells
The experiment is described as follows: Inhibition of HBV polymerase (RdDp assay). The class given is biochemical. Particulars: HBVpol expressed in SF9 cells, 30° C., 120 min, 3H-TTP incorporation; Table 3 triphosphates; read-out: HBVrt IC50.

The IC50 is the midpoint of a concentration-inhibition curve.

T2 sequence (P03156 whole entry): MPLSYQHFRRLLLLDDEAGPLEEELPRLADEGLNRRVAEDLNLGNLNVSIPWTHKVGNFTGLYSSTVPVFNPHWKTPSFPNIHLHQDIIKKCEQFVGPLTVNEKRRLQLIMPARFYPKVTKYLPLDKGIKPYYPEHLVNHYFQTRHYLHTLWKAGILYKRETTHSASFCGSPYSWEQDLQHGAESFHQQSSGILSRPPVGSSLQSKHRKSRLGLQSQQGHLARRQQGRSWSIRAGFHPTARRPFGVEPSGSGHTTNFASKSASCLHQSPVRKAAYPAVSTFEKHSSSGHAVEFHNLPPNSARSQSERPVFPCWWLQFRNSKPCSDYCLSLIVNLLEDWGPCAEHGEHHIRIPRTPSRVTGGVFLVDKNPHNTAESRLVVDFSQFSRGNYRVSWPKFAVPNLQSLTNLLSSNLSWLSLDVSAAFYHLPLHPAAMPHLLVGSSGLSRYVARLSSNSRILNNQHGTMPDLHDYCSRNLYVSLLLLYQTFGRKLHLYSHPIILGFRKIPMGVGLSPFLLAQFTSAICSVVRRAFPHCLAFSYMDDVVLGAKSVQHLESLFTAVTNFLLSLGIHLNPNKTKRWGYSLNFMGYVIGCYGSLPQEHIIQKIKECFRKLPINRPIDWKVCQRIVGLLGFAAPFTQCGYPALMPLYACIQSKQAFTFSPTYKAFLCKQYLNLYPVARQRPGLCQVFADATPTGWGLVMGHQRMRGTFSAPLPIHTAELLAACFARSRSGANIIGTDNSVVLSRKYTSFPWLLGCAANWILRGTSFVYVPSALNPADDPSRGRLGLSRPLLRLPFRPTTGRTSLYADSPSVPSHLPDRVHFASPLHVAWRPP

As to `C=C1[C@H](COP(=O)(O)OP(=O)(O)OP(=O)(O)O)[C@@H](O)C[C@@H]1n1ccc2c(=O)[nH]c(N)nc21` [Example 23, ((1R,3S,5S)-3-(2-Amino-4-oxo-3,4-dihydro-7H-pyrrolo[2,3-d]pyrimidin-7-yl)-5-hydroxy-2-methylenecyclopentyl)methyl Tetrahydrogen Triphosphate], the IC50 in experiment [1] came to 383 nM; in experiment [2] it was 8.8 nM.

With `C=C1[C@@H](n2ccc(N)nc2=O)C[C@H](O)[C@@]1(CF)COP(=O)(O)OP(=O)(O)OP(=O)(O)O` [Example 29, ((1S,3S,5S)-3-(4-Amino-2-oxopyrimidin-1(2H)-yl)-1-(fluoromethyl)-5-hydroxy-2-methylenecyclopentyl)methyl Tetrahydrogen Triphosphate], the IC50 turned out to be 326 nM in experiment [1] and 380 nM in experiment [2].

(Values after patent US20220033406A1, “C[…] AS ANTI-VIRALS” (priority 2018, published 2022).)
